“Also recorded” adds a separate entry of the source. Bridges are numbered along the chain shown (N, C = ends). Roman numbers before positions name the chains, in order. Where no end group is shown, it is not given here.
Columns and labels:
mice = assay: Elevated plus-maze test after intracerebroventricular administration (mice); type: in vivo; details: BALB/c male mice, 1 nmol/mouse intracerebroventricular, 5 min test, vs vehicle
Method: The influence of relaxin-3 on anxiety activity was determined using an elevated plus-maze. An elevated plus-maze test is a behavioral pharmacological test which is widely used in the measurement of anxiety level of experimental animals such as rats or mice, or for the evaluation of drug efficacies of antianxiety drugs, using exploring behaviors in open arms, such as the time spent in open arms, as an index.
BALB/c male mice (7 weeks of age; Japan Charles River) were received cannulation into the lateral cerebroventricle under anesthesia. The mice were then fed, and administration experiments of relaxin-3 were carried out a week or later.
The human relaxin-3 (Peptide Institute, Inc.) was dissolved in physiological saline and was diluted to a final concentration of 1 nmol/mouse.
The tested mice with guide cannula implantation were intracerebroventricularly administered with each 2 μL of the human relaxin-3 administration solution (N=8) or a vehicle solution (physiological saline) (N=9) at a rate of 1 μL per minute using an infusion pump.
Antianxiety activities were measured using an elevated plus-maze. […] The behaviors of mice were recorded by a video, and the number of entries into the open and closed arms and the time spent in the open and closed arms were measured on each mouse by analyzing the video after the completion of the test. […]

rats [1] = assay: Elevated plus-maze test after intracerebroventricular administration (rats); type: in vivo, rat; details: Wistar male rats, 5 min test, vs vehicle
Method: The influence of relaxin-3 on anxiety activity was determined using an elevated plus-maze.
Wistar male rats (9 weeks of age; Japan Charles River) were received cannulation into the lateral cerebroventricle under anesthesia. The rats were then fed, and administration experiments of relaxin-3 were carried out a week or later.
The human relaxin-3 (Peptide Institute, Inc.) was dissolved in physiological saline and was diluted to a final concentration of 10 pmol/rat or 50 pmol/rat.
The tested rats with guide cannula implantation were administered with 5 μL each of the human relaxin-3 administration solution (10 pmol/rat, N=8; or 50 pmol/rat, N=7), or vehicle group (physiological saline, N=7) at a rate of 2.5 μL per minute using an infusion pump.
Antianxiety activities were measured using an elevated plus-maze. The maze was raised 50 cm above the floor and included four arms arranged in the form of a plus sign (+) spread from the central platform (10 cm×10 cm) positioned at the center. Two opposite arms (50 cm long and 10 cm wide) are open arms, and the other two opposite arms (50 cm long, 10 cm wide with walls 40 cm high) were closed arms. Lighting was arranged so as to set the luminance at the floor in the open arms was 60 to 80 lux. A rat 10 minutes after the intracerebroventricular administration was placed in the center of the plus-maze so as to face one of the open arms, and the test was carried out for 5 minutes. The test was conducted only within a period from 11:00 to 16:00. The behaviors of rats were recorded by a video, and the number of entries into the open and closed arms and the time spent in the open and closed arms were measured on each mouse by analyzing the video after the completion of the test. FIGS. 7 and 8 show the total number of entries into open and closed arms and the percentage of time spent in open arms within 5 minutes, respectively. To compare among the human relaxin-3 administration groups and the vehicle group, a significant difference test by the t-test was conducted.

rats [2] = assay: Defensive burying test after intracerebroventricular administration; type: in vivo, rat; details: F344 male rats, 15 min test, vs vehicle
Method: The influence of relaxin-3 on an anxiety activity was determined using a defensive burying test (Treit et al., Pharmacology Biochemistry and Behavior, 15, p. 619-626, 1981).
F344 male rats (7 weeks of age; Japan Charles River) were fed foods for experimental animals (MF; Oriental Yeast) to be adapted. The rats (150 to 200 g) received cannulation into the lateral cerebroventricle under anesthesia. Administration experiments of relaxin-3 were carried out a week or later.
The tested rats were placed and left in a testing chamber, which floor was covered with a bedding material to a height of 5 cm, for 30 minutes or more once a day from 3 days before the defensive burying test, so as to allow the tested rats to habituate to the testing environment. The rats were habituated to the environment without the stimulating electrode until the test. […]
On test day, the tested rats were placed in a test chamber (with bedding material to a height of 5 cm) with a stimulating electrode, so as to start an experiment. […] All behaviors of the tested rats were recorded using a videocamera, and the burying behavior time (burying time (sec.)) within 15 minutes from the first electrical shock was measured using the recorded tape. […]

SALPR = target: T1, SALPR (Homo sapiens, UniProt Q9NSD7); assay: Suppression of forskolin-increased transcription activity (CRE-PLAP reporter) in SALPR-SE302 cells; type: cell-based; details: forskolin 1 μmol/L, 1 day incubation
T1 construct: the area encoding SALPR is known to be from position 1 to position 1407 (1410 base pairs, 469 amino acid residues); expressed in transfected cells; host or cells: SE302 cells (HEK293 clone carrying the CRE-PLAP reporter), transduced with retrovirus vector pBabeCL(SALPR)IH and selected with hygromycin
T1 sequence (Q9NSD7 1-469): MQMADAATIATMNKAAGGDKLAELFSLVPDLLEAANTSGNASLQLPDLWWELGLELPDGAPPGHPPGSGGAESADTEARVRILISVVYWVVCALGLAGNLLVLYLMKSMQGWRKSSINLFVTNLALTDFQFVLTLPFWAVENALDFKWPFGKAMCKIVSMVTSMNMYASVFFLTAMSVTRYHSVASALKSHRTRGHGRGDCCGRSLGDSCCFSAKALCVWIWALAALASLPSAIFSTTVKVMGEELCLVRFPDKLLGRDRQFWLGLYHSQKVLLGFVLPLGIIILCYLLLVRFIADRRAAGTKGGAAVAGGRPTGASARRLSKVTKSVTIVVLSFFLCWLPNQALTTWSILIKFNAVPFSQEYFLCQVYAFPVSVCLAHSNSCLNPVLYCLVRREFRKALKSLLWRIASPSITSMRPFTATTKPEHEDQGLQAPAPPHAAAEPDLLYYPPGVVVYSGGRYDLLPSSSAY
Method: SE302 cells (3×10^3) constructed in Example 5 above were cultured in a 96-well plate (Asahi Techno Glass) using 100 μl of DMEM (Sigma) supplemented with […] fetal bovine serum (FBS) and PS (hereinafter called “culture medium”). On the following day, the retrovirus vector prepared in Example 4 was appropriately diluted and a 100-μl portion of the dilution and polybrene (also called as hexadimethrine bromide, Sigma) prepared in the culture medium (at a final concentration of 8 μg/ml) were added to the SE302 cells. On the following day, the culture medium was replaced by 200 μl of a culture medium supplemented with 500 μg/ml hygromycin (Invitrogen) and then incubation was continued. The SE302 cells for SALPR gene transfer grown under these conditions (hereinafter called “SALPR-SE302 cells”) were appropriately subcultured for experimental use.
SALPR-SE302 cells constructed in Example 6 above were suspended in a medium for measuring transcription activity (DMEM supplemented with 10% FBS (inactivated at 65° C. for 30 minutes)) and then inoculated in a 96-well plate (Beckton Dickinson) at 1×10^4 cells/well. […]

THP-1 cells = THP-1 cells of the immune system; WO 01/81562, Bathgate et al. 2002; cited from earlier work
[3] = 50 pmol/rat intracerebroventricular

Substance | total number of entries into open and closed arms (mice) | time spent in open arms (mice; P<0.05) | total number of entries into open and closed arms (rats [1]; 10 pmol/rat intracerebroventricular) | time spent in open arms (rats [1]; 10 pmol/rat intracerebroventricular, P<0.05) | time spent in open arms (rats [1]; [3]) | total number of entries into open and closed arms (rats [1]; [3]) | burying behavior time (rats [2]; 0.05 nmol/rat intracerebroventricular) | burying behavior time (rats [2]; 1 nmol/rat intracerebroventricular, Dunnett P<0.05) | transcription activity increased by addition of forskolin (alkaline phosphatase reporter) (SALPR) | intracellular cyclic AMP (cAMP) (THP-1 cells)
human relaxin-3: Synthetic human relaxin-3: B-chain SEQ ID NO: 5 and A-chain SEQ ID NO: 6 bonded through disulfide bonds (beta RAAPYGVRLCGREFIRAVIFTCGGSRW; alpha DVLAGLSSSCCKWGCSKSEISSLC; disulfide I:10-II:11, I:22-II:24, II:10-II:15; not fully specified; ends not checked; listed as Homo sapiens) | no difference | significant increase | no difference | statistically significantly high | increase | no difference | decreased | significant decrease | – | –
insulin [reference compound] | – | – | – | – | – | – | – | – | not affected | –
relaxin-3: Relaxin-3 (Phoenix Pharmaceuticals) used in the SALPR reporter assay; mature two-chain polypeptide also known as INSL7 | – | – | – | – | – | – | – | – | suppresses; also recorded: specific dose-dependent suppression | increase
